Read-outs that look alike come from different tables or passages of the source.

Data on eleven compounds can be found in patent publication US10000499B2, “Methyl diazepane orexin receptor antagonists” (MERCK SHARP & DOHME CORP., priority 2014, dated 2018).

Experiment [1] addresses T1, rat orexin-1 receptor (Rattus norvegicus, UniProt P56718).
T1 construct: expressed in transfected cells; host or cells: CHO cells (grown under G418 selection)
T1 sequence (P56718 1-416): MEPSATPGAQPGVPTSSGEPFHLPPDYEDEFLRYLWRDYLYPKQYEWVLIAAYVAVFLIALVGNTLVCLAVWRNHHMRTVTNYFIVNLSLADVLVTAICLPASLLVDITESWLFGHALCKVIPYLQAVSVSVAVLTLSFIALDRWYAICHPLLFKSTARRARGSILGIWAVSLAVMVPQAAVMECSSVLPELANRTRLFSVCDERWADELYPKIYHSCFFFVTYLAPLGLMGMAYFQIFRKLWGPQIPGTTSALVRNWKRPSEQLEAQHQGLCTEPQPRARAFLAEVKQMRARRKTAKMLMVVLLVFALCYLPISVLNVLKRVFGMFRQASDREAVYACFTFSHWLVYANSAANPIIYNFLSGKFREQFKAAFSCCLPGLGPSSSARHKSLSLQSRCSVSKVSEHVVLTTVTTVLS
Briefly: FLIPR Ca2+ flux assay, OX1R. Type of experiment: cell-based. The settings on record: CHO cells expressing rat orexin-1 receptor; agonist 70 pM Ala-6,12 orexin-A. The method, then: (§1) For intracellular calcium measurements, Chinese hamster ovary (CHO) cells expressing the rat orexin-1 receptor or the human orexin-2 receptor, are grown in Iscove's modified DMEM containing 2 mM L-glutamine, […], 1% hypoxanthine-thymidine supplement, 100 U/ml penicillin, 100 μg/ml streptomycin and 10% heat-inactivated fetal calf serum (FCS). The cells are seeded at 20,000 cells/well into Becton-Dickinson black 384-well clear bottom sterile plates coated with poly-D-lysine. All reagents were from GIBCO-Invitrogen Corp. The seeded plates are incubated overnight at 37° C. and 5% CO2. Ala-6,12 human orexin-A as the agonist is prepared as a 1 mM stock solution in 1% bovine serum albumin (BSA) and diluted in assay buffer (HBSS containing 20 mM HEPES, 0.1% BSA and 2.5 mM probenecid, pH7.4) for use in the assay at a final concentration of 70 pM. Test compounds are prepared as 10 mM stock solution in DMSO, then diluted in 384-well plates, first in DMSO, then assay buffer. On the day of the assay, cells are washed 3 times with 100 μl assay buffer and then incubated for 60 min (37° C., 5% CO2) in 60 μl assay buffer containing 1 μM Fluo-4AM ester, 0.02% pluronic acid, and 1% BSA, The dye loading solution is then aspirated and cells are washed 3 times with 100 μl assay buffer, 30 μl of that same buffer is left in each well. Within the Fluorescent Imaging Plate Reader (FLIPR, Molecular Devices), test compounds are added to the plate in a volume of 25 μl, incubated for 5 min and finally 25 μl of agonist is added. Fluorescence is measured for each well at 1 second intervals for 5 minutes and the height of each fluorescence peak is compared to the height of the fluorescence peak induced by 70 pM Ala-6,12 orexin-A with buffer in place of antagonist. […] The intrinsic orexin receptor antagonist activity of a compound which may be used in the present invention may be determined by these assays.
For orientation: A change in cytosolic calcium serves as a functional read-out for many receptors and channels.

Experiment [2] deals with T2, human orexin-2 receptor (Homo sapiens, UniProt O43614).
T2 construct: expressed in transfected cells; host or cells: CHO cells (grown under G418 selection)
T2 sequence (O43614 1-444): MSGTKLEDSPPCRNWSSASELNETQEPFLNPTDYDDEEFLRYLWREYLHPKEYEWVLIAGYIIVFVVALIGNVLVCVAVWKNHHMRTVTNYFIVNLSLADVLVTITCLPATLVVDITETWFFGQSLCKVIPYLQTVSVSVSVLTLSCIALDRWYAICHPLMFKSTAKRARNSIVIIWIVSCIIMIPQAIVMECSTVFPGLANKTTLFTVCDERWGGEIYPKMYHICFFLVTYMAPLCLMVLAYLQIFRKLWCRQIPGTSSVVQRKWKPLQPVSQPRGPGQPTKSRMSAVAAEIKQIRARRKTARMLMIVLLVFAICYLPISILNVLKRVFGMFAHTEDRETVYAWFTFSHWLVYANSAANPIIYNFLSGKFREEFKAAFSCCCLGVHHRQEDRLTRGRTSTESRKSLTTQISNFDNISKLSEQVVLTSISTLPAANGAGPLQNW
The experiment in a line: FLIPR Ca2+ flux assay, OX2R. The format is cell-based. The settings on record: for Fold Selective: OX2R over OX1R, from FLIPR values. On the procedure:
as §1

The mark [3] stands for this setting: CHO cells expressing human orexin-2 receptor, agonist 70 pM Ala-6,12 orexin-A, read-out: OX2R FLIPR.

`CCN(C(C)=O)c1cccc(N2CC[C@@H](C)N(C(=O)c3ccccc3-n3nccn3)CC2)n1` [Example 13, N-ethyl-N-{6-[(5R)-5-methyl-4-{[2-(2H-1,2,3-triazol-2-yl)phenyl]carbonyl}-1,4-diazepan-1-yl]pyridin-2-yl}acetamide]: the values for the IC50 in experiment [1] and in experiment [2] (setting [3]) were greater than 10 µM and 67 nM, respectively. Besides, the “Fold Selective” value in experiment [2] turned out to be 149.

For the compound `Cc1ccc(-n2nccn2)c(C(=O)N2CCCN(c3nc4ccccc4o3)CC2)c1` [Example B-3, reference compound], the “selectivity between orexin-2 receptor and orexin-1 receptor (in words)” value in experiment [2] (comparison with diazepane compounds of U.S. Pat. No. 8,685,961) is reported as “greater selectivity for the orexin-1 receptor than for the orexin-2 receptor”.

Turning to `COc1ccnc(N2CC[C@@H](C)N(C(=O)c3cccnc3-n3cccn3)CC2)c1` [Example 5, (5R)-1-(4-methoxypyridin-2-yl)-5-methyl-4-{[2-(1H-pyrazol-1-yl)pyridin-3-yl]carbonyl}-1,4-diazepane], the IC50 in experiment [1] is greater than 10 µM; in experiment [2] (setting [3]), 103 nM. For the same compound, in experiment [2], the “Fold Selective” value was found to be 97.

Regarding `C[C@@H]1CCN(c2nccn3nccc23)CCN1C(=O)c1ccccc1-n1nccn1` [Example 24, 4-[(5R)-5-methyl-4-{[2-(2H-1,2,3-triazol-2-yl)phenyl]carbonyl}-1,4-diazepan-1-yl]pyrazolo[1,5-a]pyrazine], the values for the IC50 in experiment [1] and in experiment [2] (setting [3]) were greater than 10 µM and 113 nM, respectively. Also, the “Fold Selective” value in experiment [2] worked out at 88.

Consider `COc1ccnc(N2CC[C@@H](C)N(C(=O)c3ccccc3C3CC3)CC2)c1` [Example 9, (5R)-4-[(2-cyclopropylphenyl)carbonyl]-1-(4-methoxypyridin-2-yl)-5-methyl-1,4-diazepane], for which the values for the IC50 in experiment [1] and in experiment [2] (setting [3]) were greater than 10 µM and 125 nM, respectively. In experiment [2], the “Fold Selective” value came to 80.

Take `C[C@@H]1CCN(c2nccn3ccnc23)CCN1C(=O)c1ccccc1C1CC1` [Example 23, 8-{(5R)-4-[(2-cyclopropylphenyl)carbonyl]-5-methyl-1,4-diazepan-1-yl}imidazo[1,2-a]pyrazine]: the IC50 in experiment [1] was greater than 10 µM; in experiment [2] (setting [3]), 29 nM. Besides, the “Fold Selective” value in experiment [2] is reported as 344.

On to `C[C@@H]1CCN(c2nccn3ccnc23)CCN1C(=O)c1ccccc1C1(C#N)CC1` [Example 21, (R)-1-(2-(4-(imidazo[1,2-a]pyrazin-8-yl)-7-methyl-1,4-diazepane-1-carbonyl)phenyl)cyclopropanecarbonitrile], for which the IC50 in experiment [1] was greater than 10 µM; in experiment [2] (setting [3]), 65 nM. In addition, the “Fold Selective” value in experiment [2] is 153.

For `Cc1ccnc(N2CC[C@@H](C)N(C(=O)c3ccccc3-n3nccn3)CC2)c1` [Example 1, (R)-(2-(2H-1,2,3-triazol-2-yl)phenyl)(7-methyl-4-(4-methylpyridin-2-yl)-1,4-diazepan-1-yl)methanone], in experiment [1], the IC50 was greater than 10 µM. Besides, in experiment [2], the IC50 stood at 147 nM and the “Fold Selective” value was 68.

As for `CCC(=O)N(C)c1cccc(N2CC[C@@H](C)N(C(=O)c3ccccc3-n3nccn3)CC2)n1` [Example 10, (R)-N-(6-(4-(2-(2H-1,2,3-triazol-2-yl)benzoyl)-5-methyl-1,4-diazepan-1-yl)pyridin-2-yl)-N-methylpropionamide], the IC50 in experiment [1] is greater than 10 µM.

Consider `C[C@@H]1CCN(c2nccn3ccnc23)CCN1C(=O)c1ccccc1-n1nccn1` [Example 22, 8-[(5R)-5-methyl-4-{[2-(2H-1,2,3-triazol-2-yl)phenyl]carbonyl}-1,4-diazepan-1-yl]imidazo[1,2-a]pyrazine], for which the IC50 in experiment [1] was greater than 10 µM; in experiment [2] (setting [3]) it was 50 nM. Besides, the “Fold Selective” value in experiment [2] came out at 200.

Take `CC(=O)N(C)c1cccc(N2CC[C@@H](C)N(C(=O)c3ccccc3-n3nccn3)CC2)n1` [Example 12, N-methyl-N-{6-[(5R)-5-methyl-4-{[2-(2H-1,2,3-triazol-2-yl)phenyl]carbonyl}-1,4-diazepan-1-yl]pyridin-2-yl}acetamide]: the values for the IC50 in experiment [1] and in experiment [2] (setting [3]) were greater than 10 µM and 85 nM, respectively. Besides, in experiment [2], the “Fold Selective” value is listed as 117.
